Values of other authors, collected in publication PMC11331742 (Military Medical Research, 2024).

How the values were obtained:
preclinical models = tested on: preclinical models
Description: (§1) In addition, studies involving MC2r-independent agonists such as PT-141 could provide insight into cortisol-independent anti-inflammatory mechanisms.

[1] = tested on: mouse model of acute lung injury
Description: as §1

MC2r = tested on: MC2r; design: method as in PMID 25140322

Molecule | anti-inflammatory effects (preclinical models) | effect on inflammation [1] | affinity for MC2r (MC2r)
CCCC(=O)C1(c2ccccc2)CCN(C(=O)[C@@H](Cc2ccc(OC)cc2)NC(=O)[C@@H](N)Cc2cncn2C)CC1 [BMS-470539] | promising anti-inflammatory effects |  | 
α-melanocyte-stimulating hormone [α-MSH] |  | reduced inflammation | minimal affinity
